This is an account of results in US10457947B2, “Targeting of human glucocorticoid receptor beta in cancer” (The University of Toledo, priority 2016, dated 2019).

One series deals with E006AA cell lines. Kind of series: Migration of E006AA-Par and E006AA-hT prostate cancer cells. It is filed as cell-based, human. From the text:
FIG. 15: Lentiviral shRNA suppression of human GRβ in E006AA-Par and E006AA-hT prostate cancer cells suppresses migration. *, P<0.05 and **, P<0.01 (scramble vs GRβ KD). N=12.

The next series relates to human GRβ mRNA. Kind of series: GRβ mRNA expression by Real-Time PCR in T24 cells. It is filed as cell-based. How it is done: The human uroepithelial carcinoma cell lines UMUC-3 and T24 (ATCC) were routinely cultured and maintained in Minimum Essential Medium (MEM) containing 10% fetal bovine serum (FBS) with 1% antibiotic-antimycotic. Cells were maintained at 37° C. and 5% CO2. Media was changed to MEM containing 10% Dialyzed-FBS with 1% antibiotic antimycotic 24 hours before hormone treatments.
A peptide nucleic acid (PNA) (Sweet-P) conjugated to a cell penetrating peptide (CPP) targeting the miR144 binding site in the 3′UTR of the human GRβ was designed using the PANAGENE® website (www.panagene.com). The Sweet-P targeting sequence was: (TGCCATACACAGTAT) [SEQ ID NO:1]. The Sweet-P sequence targeted the miR144 binding site in the 3′ UTR of human GRβ. (FIG. 7.) All PNAs were attached to an O-linker and a modified tat protein (VQRKRQKLMP) [SEQ ID NO:2] for delivery into the cell. Treatment with Sweet-P was performed for 48 hrs before the cells were analyzed.

In the next series the test system is T24 bladder cancer cells. The series can be described thus: Scratch (wounding) migration assay in T24 cells. It is filed as cell-based, human. Here is the method: Cells were seeded on a 6-well plate and grown for 24 hours until a monolayer of 90% confluent cells was obtained. A scratch wound in the cell monolayer was introduced using a sterile pipette tip. Images were taken at the time of wounding, and every 5 hours thereafter. Migration was measured as the fold change of the width of the wound remaining. To determine miRNA and mRNA expression during the scratch (wounding assay), total RNA was collected using the miRNeasy® Mini Kit (Qiagen) (described above) at 0 and 3 hours after the migration.

In the next series the test system is UMUC-3 cells. Kind of series: miRNA expression by Real-Time PCR in UMUC-3 cells. The format is cell-based, human. Conditions: 100 nM Insulin, 2 hours. Here is the method: FIGS. 8A-8B: The effect of dexamethasone treatment on cell migration and miRNA expression in UMUC-3 and T24 bladder cancer cells. Migration was measured in the UMUC-3 and T24 cells that were treated with either vehicle or 100 nM dexamethasone for 30 minutes prior to wounding, and is presented as the fold-change in the wound width remaining (FIG. 8A). Images of the migration assay at […] post wounding are shown, with wound edges marked at T0 (black solid line) and T15 (white dashed line). ANOVA p<0.001; Bonferoni comparisons ***, p<0.0001 (versus Vehicle) (±S.E.; n=6). Total RNA was extracted from the UMUC3 and T24 cells after treating with either vehicle, 100 nM dexamethasone, or 100 nM Insulin in dialyzed media for 2 hours before harvesting, and miRNA expression was measured by Real-Time PCR (FIG. 8B). *, p<0.05; (Dex versus Veh); $, p<0.05; (Ins versus Veh); ##, p<0.01; ##, p<0.001; (T24 versus UMUC3) (±S.E.; n=6).
Total RNA was extracted from cell cultures using the miRNeasy® Mini Kit (Qiagen). Total RNA was read on a NanoDrop 2000® spectrophotometer (Thermo Fisher Scientific, Wilmington, Del.) and cDNA was synthesized using the miScript RT Kit (Qiagen). […] The miScript Primer Assay® primers were purchased from Qiagen. Normalization was performed in separate reactions with primers to Hs_RNU6-2_11, At_U19_1, and Hs_SNORD61_11.

Series [1] relates to GRα. The series can be described thus: Immunofluorescence of GRα in T24 cells. The format is cell-based, human. How it is done:
(§1) FIGS. 3A-3D: Dexamethasone and insulin treatment in T24 cells (FIGS. 3A-3B) and UMUC-3 cells (FIGS. 3C-3D). GRβ and GRα expression and location were measured using immunofluorescence with control (vehicle treatment), dexamethasone, or insulin treatments. Cells were seeded onto coverslips in media containing 10% dialyzed FBS for 24 hours before treating. Cells were treated with 100 nM insulin, 100 nM dexamethasone, or vehicle for 30 minutes. Secondary antibodies (labeling of human GRα or GRβ) are shown in green, DAPI (nuclei labeling) are shown in blue, a merge of the green and blue images are shown in panel 3 to represent localization, and a bright field image is shown in gray (scale bar=25 μm).
Cells were seeded onto a glass coverslip placed in a 6-well plate and grown were grown to desired confluence. Cells were then fixed with 3% paraformaldehyde, permeated with PBS containing 0.25% Triton X (PBST), and blocked with PBST containing 1% BSA. Slides were then stained with either anti-hGRα Rabbit IgG or anti-hGRβ Rabbit IgG antibodies obtained from Antibody Research. Secondary staining was performed using anti-Rb IgG 488 antibody from Life Technologies. Coverslips were planted onto slides with Fluoromount-G®, and DAPI was added to stain nuclei. Slides were magnified using a Leica Microscope with a 63X oil Immersion lens. […]

In another series the test system is T24 cells. Kind of series: miRNA expression by Real-Time PCR in T24 cells. The format is cell-based, human. The settings on record: 100 nM Insulin, 2 hours. How it is done:
FIGS. 8A-8B: […] ANOVA p<0.001; Bonferoni comparisons ***, […]=6). […] Total RNA was extracted from cell cultures using the miRNeasy® Mini Kit (Qiagen). […] The miScript Primer Assay® primers were purchased from Qiagen. Normalization was performed in separate reactions with primers to Hs_RNU6-2_11, At_U19_1, and Hs_SNORD61_11. The cloning vector pCMV-MIR containing the miR144 sequence was purchased from Origene. Cells were seeded on a 6-well plate, and transient transfection of the plasmid was completed as described above. After 48 hours-post transfection, RNA was harvested.

Series [2] relates to GRβ. Kind of series: Immunofluorescence of GRβ in T24 cells. It is filed as cell-based, human.
The subject of series [3] is GRβ. The series can be described thus: Immunofluorescence of GRβ in UMUC-3 cells. It is filed as cell-based, human. Conditions: 100 nM, 30 minutes. Here is the method:
as §1, with “Cells were seeded onto coverslips in media containing 10% dialyzed FBS for 24 hours before treating.” left out
(§2) Cells were seeded onto a glass coverslip placed in a 6-well plate and grown were grown to desired confluence. […] Slides were then stained with either anti-hGRα Rabbit IgG or anti-hGRβ Rabbit IgG antibodies obtained from Antibody Research. […] Coverslips were planted onto slides with Fluoromount-G®, and DAPI was added to stain nuclei. Slides were magnified using a Leica Microscope with a 63X oil Immersion lens. Images were acquired in the XYZ plane in 1 μm steps with a 63X oil objective (NA 1.40). Images were acquired with the LAS AF® software in sequential scan mode. AlexaFluor488® was excited at 488 nm with collection at 500-558 nm and DAPI was excited with the multi-photon (MP) laser tuned to 790 nm with collection at 420-500 nm. Images are 2D projections of the of image stack as labeled. […]

Series [4] deals with GRα. Kind of series: Immunofluorescence of GRα in UMUC-3 cells. It is filed as cell-based, human. Conditions: 100 nM, 30 minutes, versus vehicle. Here is the method:
as §1, with “Cells were seeded onto coverslips in media containing 10% dialyzed FBS for 24 hours before treating.” left out
as §2

The test system of another series is PTEN. The series can be described thus: Immunostaining of PTEN in T24 cells. It is filed as cell-based, human. The settings on record: 10 nM Sweet-P, 48 hours.
The test system of a further series is mTOR. The series can be described thus: Immunostaining of mTOR in T24 cells. The settings on record: 10 nM Sweet-P, 48 hours. The format is cell-based, human.
For the next series, the system named is 3′UTR of human GRβ. The series can be described thus: 3′UTR GRβ-Luc luciferase reporter assay in T24 cells. The format is cell-based. The settings on record: Sweet-P at 0.1 nM, 1.0 nM, and 10 nM, 48 hours, versus 0 nM. How it is done:
For transient transfection, cells were plated on a 6-well or 12-well dish in MEM containing 10% FBS. Cells were washed with OPTI-MEM and transfected using GeneFect® (Alkali Scientific, Inc.), according to the manufacturer's […] protocol. OPTI-MEM was removed after 12 h and MEM containing 10% FBS was added.
The expression vector pMirTarget containing the 3′UTR of hGRβ (hGRβ 3′UTR-luc) was purchased from Origene. The binding sites were mutated using the QuikChange Lightning Multi Site-Directed Mutagenesis Kits® (Agilent Technologies). Successful mutations were confirmed through sequencing by Operon MWG. Cells were seeded onto a 12-well plate and grown overnight. Transient transfection was performed as described above. To determine the effect of Sweet-P on the T24 bladder cancer cells, the cells were treated 24 h after transfection for 48 hours post transfection, 3′UTR GRβ-Luc WT or mutant expression was measured by luciferase, and pRL-CMV Renilla reporter for normalization to transfection efficiency, using the Promega dual luciferase assay system (Promega, Madison, Wis.).
A peptide nucleic acid (PNA) (Sweet-P) conjugated to a cell penetrating peptide (CPP) targeting the miR144 binding site in the 3′UTR of the human GRβ was designed using the PANAGENE® website (www.panagene.com). […] Treatment with Sweet-P was performed for 48 hrs before the cells were analyzed.

Series [5] concerns GRβ. Kind of series: GRβ expression in E006AA-Par prostate cancer cells. It is filed as cell-based, human. From the text: (§3) FIG. 10: Sweet-P blocks GRβ expression in lung and prostate cancer cells.
For series [6], the target named is T1, GRα (Homo sapiens, UniProt P04150).
T1 construct: endogenous in cells; host or cells: T24 human uroepithelial carcinoma cells (ATCC)
T1 sequence (P04150 1-777): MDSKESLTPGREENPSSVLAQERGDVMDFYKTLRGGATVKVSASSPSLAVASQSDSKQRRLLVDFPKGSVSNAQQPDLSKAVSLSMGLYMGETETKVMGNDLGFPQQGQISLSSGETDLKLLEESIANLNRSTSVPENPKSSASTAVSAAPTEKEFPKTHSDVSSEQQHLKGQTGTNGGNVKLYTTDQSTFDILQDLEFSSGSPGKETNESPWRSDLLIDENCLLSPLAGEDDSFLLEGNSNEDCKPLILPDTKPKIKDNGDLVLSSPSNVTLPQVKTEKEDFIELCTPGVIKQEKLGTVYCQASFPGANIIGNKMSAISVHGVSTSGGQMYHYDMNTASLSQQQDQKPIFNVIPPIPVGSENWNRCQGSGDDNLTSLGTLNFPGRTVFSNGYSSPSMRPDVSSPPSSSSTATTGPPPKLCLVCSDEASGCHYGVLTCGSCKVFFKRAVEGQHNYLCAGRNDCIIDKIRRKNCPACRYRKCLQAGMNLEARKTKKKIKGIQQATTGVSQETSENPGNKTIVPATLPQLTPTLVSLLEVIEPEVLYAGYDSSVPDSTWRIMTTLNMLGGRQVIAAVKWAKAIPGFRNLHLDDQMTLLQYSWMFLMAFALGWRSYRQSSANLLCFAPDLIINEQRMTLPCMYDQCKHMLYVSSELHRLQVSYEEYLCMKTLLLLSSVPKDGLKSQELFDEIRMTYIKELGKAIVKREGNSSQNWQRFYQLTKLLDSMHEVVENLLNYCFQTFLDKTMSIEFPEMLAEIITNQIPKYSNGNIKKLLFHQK
Kind of series: GRα controlled gene expression by Real-Time PCR in T24 cells. The format is cell-based. Conditions: Sweet-P 48 hours then 2 hours of dexamethasone.
Description: GRα controlled gene response was measured by Real-Time PCR for FKBP51, GILZ, p21, VEGFA, GRα, and GRβ. Cells were seeded in media containing 10% dialyzed FBS for 24 hours before treatment.
Total RNA was extracted from cell cultures using the 5-Prime PerfectPure® RNA Cell Kit (Fisher Scientific Company, LLC). Total RNA was read on a NanoDrop 2000® spectrophotometer (ThermoFisher Scientific, Wilmington, Del.) and cDNA was synthesized using High Capacity cDNA Reverse Transcription Kit (Applied Biosystems). PCR amplification of the cDNA was performed by quantitative real-time PCR using TrueAmp SYBR Green qPCR SuperMix® (Smart Bioscience). The thermocycling protocol consisted of 10 min at 95° C., 40 cycles of 15 sec at 95° C., 30 sec at 60° C., and 20 sec at 72° C., and finished with a melting curve ranging from 60-95° C. to allow distinction of specific products. Normalization was performed in separate reactions with primers to GAPDH.

For series [7], the system named is GRβ. Kind of series: GRβ expression in A549 lung cancer cells. It is filed as cell-based, human.
Text: as §3

[8] abbreviates: 100 nM, 30 minutes, versus vehicle.

As for “GRβ shRNA: pGFP-C-shLenti lentiviral GRβ shRNA (CCAGAAAGCACATCTCACACATTAATCTG) [reference compound]”, the migration result was “significant reduction” with E006AA cell lines (E006AA prostate cancer cells, lentiviral shRNA versus scramble) and “significant (ANOVA: p<0.001) decrease” in the series on T24 bladder cancer cells (T24 GRβ shRNA cells versus T24 Scramble). The “knockdown of GRβ expression (reduction)” value in the series on human GRβ mRNA (stable shRNA lentivirus, versus T24 Scramble) stood at 64%.

Regarding “insulin: insulin, hormone treatment at 100 nM”, the miR-181a expression entry in the series with UMUC-3 cells is “suppress”. Moreover, the “GRα expression (immunofluorescence)” value with GRα [1] (setting [8]) is recorded as “significantly decreased (p<0.001)”; with GRα [4] it was “no effect”. Besides, the “expression of miR-33a, miR-144, miR-181a, miR-181b, miR-181c, or miR-181d” value in the series on T24 cells is given as “did not significantly change”. Also, the GRβ localization result in the series on GRβ [2] (100 nM, 30 minutes) was “no change”; in the series on GRβ [3], “higher in the nucleus”. Also, the “GRβ expression (immunofluorescence)” value in the series with GRβ [2] (setting [8]) and with GRβ [3] (versus vehicle) was “significantly increased” in each case.

Consider “Sweet-P: PNA TGCCATACACAGTAT [SEQ ID NO:1] attached to an O-linker and modified tat protein VQRKRQKLMP, targeting the miR144 binding site in 3′UTR of human GRβ (all peptide nucleic acid (PNA); O-linker and modified tat peptide attached, position not given here)”, for which the GRα protein expression entry in the series on GRα [1] (10 nM Sweet-P, 48 hours) is reported as “no effect”. Moreover, the PTEN protein expression result with PTEN is “significantly (p<0.0001) increased”. Also, the migration result in the series on E006AA cell lines (E006AA-Par and E006AA-hT cells, Sweet-P) is “significantly decreased”. Further, the mTOR protein expression result with mTOR is on record as “unaffected”. The “GRβ mRNA expression” value in the series with human GRβ mRNA (Sweet-P at 1.0 nM, 10 nM, 50 nM, and 100 nM, 48 hours, versus 0 nM) is “significantly (p<0.05) decreased”. In addition, the “luciferase expression of the pMirTarget 3′ UTR hGRβ construct” value in the series on 3′UTR of human GRβ is on record as “significantly (p<0.001) reduced”. Further, the GRβ expression entry with GRβ [5] is reported as “blocks”. In addition, the “migration (wound width remaining)” value with T24 bladder cancer cells (T24 cells, 10 nM Sweet-P for 48 hours prior to wounding) is “significantly (ANOVA: p<0.001) inhibited”. In addition, in the series with GRβ [2] (10 nM Sweet-P, 48 hours), the GRβ protein expression entry is on record as “reduced”. For the same substance, in the series with GRα [6], the “FKBP51 expression (GRα activity)” value was “enhancing expression” and the “tumor necrosis factor α (TNFα) expression (GRα activity)” value is “decreasing”. In the series on GRβ [7], the GRβ expression result was “blocks”.
